Test results published in patent US20040247577A1, “Method and composition for inhibiting heparanase activity” (priority 2001, published 2004).

Key:
mouse heparanase = target: T1, mouse heparanase (Mus musculus, UniProt Q6YGZ1); test: Inhibition of recombinant mouse heparanase activity; type: biochemical
T1 construct: heterodimer of the 50 kDa polypeptide (Lys^150-Ile^535) and the 8 kDa peptide (Asp^28-Lys^100); made in house
T1 sequence (Q6YGZ1 150-535): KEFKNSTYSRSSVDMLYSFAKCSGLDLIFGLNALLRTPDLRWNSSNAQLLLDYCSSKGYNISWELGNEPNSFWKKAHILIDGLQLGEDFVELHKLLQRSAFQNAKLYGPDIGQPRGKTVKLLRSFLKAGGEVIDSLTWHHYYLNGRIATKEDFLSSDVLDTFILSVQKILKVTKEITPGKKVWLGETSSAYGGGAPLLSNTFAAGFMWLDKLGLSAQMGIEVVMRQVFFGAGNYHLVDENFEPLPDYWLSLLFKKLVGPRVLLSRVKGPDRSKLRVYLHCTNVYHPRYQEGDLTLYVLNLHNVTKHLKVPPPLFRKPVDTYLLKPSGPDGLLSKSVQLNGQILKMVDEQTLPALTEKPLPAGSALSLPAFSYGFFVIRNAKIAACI
T1 sequence (Q6YGZ1 28-100): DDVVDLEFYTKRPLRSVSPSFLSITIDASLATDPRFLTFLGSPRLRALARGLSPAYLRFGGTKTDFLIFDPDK
Procedure: Polypeptide samples were mixed with 25 μl of ^35S-ECM-HSPG (a generous gift from Dr. Israel Vlodavsky, The Hadassah-Hebrew University Hospital, Jerusalem, Israel) in a buffer containing 0.1 M sodium acetate, pH 5.0, 0.01% Triton X-100. After overnight incubation at 37° C., the samples were loaded onto a Superose 12 column (0.7×25 cm, 0.5 ml/min) and the radioactivity of the fractions (0.25 ml/fraction) were measured in a β-scintillation counter. The enzymatic activity was also studied for the ability to degrade HS. For this purpose, ^3H-HS-Sepharose (6.25 nM) was substituted as the substrate in the heparanase reaction, and the radioactivity released into the reaction buffer after overnight incubation was determined.

human heparanase = target: T2, human heparanase (Homo sapiens, UniProt Q9Y251); details: cited from earlier work
T2 sequence (Q9Y251 158-543): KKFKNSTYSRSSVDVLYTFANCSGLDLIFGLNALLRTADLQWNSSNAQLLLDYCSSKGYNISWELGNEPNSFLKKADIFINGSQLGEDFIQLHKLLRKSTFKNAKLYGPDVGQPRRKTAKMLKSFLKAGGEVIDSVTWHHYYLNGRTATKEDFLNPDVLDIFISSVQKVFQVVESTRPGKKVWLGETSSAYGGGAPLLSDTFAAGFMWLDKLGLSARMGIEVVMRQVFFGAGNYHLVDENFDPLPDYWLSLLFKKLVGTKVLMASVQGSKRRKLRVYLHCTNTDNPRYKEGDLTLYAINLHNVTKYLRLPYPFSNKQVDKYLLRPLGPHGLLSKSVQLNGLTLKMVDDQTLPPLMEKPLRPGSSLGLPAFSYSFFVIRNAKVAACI
T2 sequence (Q9Y251 36-109): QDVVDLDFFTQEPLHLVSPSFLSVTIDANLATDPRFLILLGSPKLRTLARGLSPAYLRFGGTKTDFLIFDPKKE

lung metastasis = details: cited from earlier work; for tumor growth and angiogenesis: Parish et al. 1999; for incidence of lung metastasis: experimental animals
[1] = Enzymatic activity of heparanase on radiolabeled HSPG / HS substrates; type: biochemical
Procedure: Polypeptide samples were mixed with 25 μl of ^35S-ECM-HSPG (a generous gift from Dr. […] After overnight incubation at 37° C., the samples were loaded onto a Superose 12 column (0.7×25 cm, 0.5 ml/min) and the radioactivity of the fractions (0.25 ml/fraction) were measured in a β-scintillation counter. The enzymatic activity was also studied for the ability to degrade HS. For this purpose, ^3H-HS-Sepharose (6.25 nM) was substituted as the substrate in the heparanase reaction, and the radioactivity released into the reaction buffer after overnight incubation was determined.
To test whether the recombinant mouse heparanase is enzymatically active, purified polypeptide was incubated with metabolically radiolabeled HSPG. The reaction products were analyzed by gel filtration on a Superose 12 column.

heparin
inhibition of mouse heparanase enzyme activity (in words) (mouse heparanase): inhibited

Laminarin sulfate
human heparanase activity in vitro (human heparanase): inhibit
IC50 (mouse heparanase): 50 nM
inhibition of mouse heparanase activity at 1 μM (mouse heparanase; 1 μM): completely inhibited
tumor growth and angiogenesis (lung metastasis): markedly reduced
incidence of lung metastasis (lung metastasis): markedly reduced
tumor metastasis in vivo (lung metastasis; in vivo): inhibit

mannopentaose phosphate sulfate [PI-88]
tumor growth and angiogenesis (lung metastasis): markedly reduced
incidence of lung metastasis (lung metastasis): markedly reduced

B1: mouse heparanase: Recombinant full-length mouse heparanase polypeptide of 535 amino acids, mature form a heterodimer of 50 kDa and 8 kDa (protein, UniProt Q6YGZ1 1-535, looked up)
chain: MLRLLLLWLWGPLGALAQGAPAGTAPTDDVVDLEFYTKRPLRSVSPSFLSITIDASLATDPRFLTFLGSPRLRALARGLSPAYLRFGGTKTDFLIFDPDKEPTSEERSYWKSQVNHDICRSEPVSAAVLRKLQVEWPFQELLLLREQYQKEFKNSTYSRSSVDMLYSFAKCSGLDLIFGLNALLRTPDLRWNSSNAQLLLDYCSSKGYNISWELGNEPNSFWKKAHILIDGLQLGEDFVELHKLLQRSAFQNAKLYGPDIGQPRGKTVKLLRSFLKAGGEVIDSLTWHHYYLNGRIATKEDFLSSDVLDTFILSVQKILKVTKEITPGKKVWLGETSSAYGGGAPLLSNTFAAGFMWLDKLGLSAQMGIEVVMRQVFFGAGNYHLVDENFEPLPDYWLSLLFKKLVGPRVLLSRVKGPDRSKLRVYLHCTNVYHPRYQEGDLTLYVLNLHNVTKHLKVPPPLFRKPVDTYLLKPSGPDGLLSKSVQLNGQILKMVDEQTLPALTEKPLPAGSALSLPAFSYGFFVIRNAKIAACI
modifications: full-length
notes: Recombinant full-length mouse heparanase polypeptide of 535 amino acids, mature form a heterodimer of 50 kDa and 8 kDa
pH at which the enzyme was most active ([1]; ^3H-HS at various pH conditions): 5.0
enzymatic activity at pH 4.0 or 8.0 ([1]; pH 4.0 or 8.0): Little or no enzymatic activity was detected
amount of heparanase giving maximal degradation of 6.25 nmole ^3H-HS ([1]; pH 5.0): 50 ng
additional enzyme necessary for comparable activity ([1]; pH 7.5 compared with pH 5.0): ~10 fold
degradation of ^35S-HSPG, elution profile on Superose 12 column ([1]; undigested substrate eluted in fractions 5-15): eluted as low-MW fragments in later fractions (16-35)
